Where two headings read alike, the source gives them in different places.
Key:
[1] = molecular target: Tb-labeled inactive PDGFRβ (Homo sapiens (Human), UniProt P09619); assay: biochemical; assay type: binding
[2] = molecular target: His6-TEV-PDGFRβ (557-1016) (Homo sapiens (Human), UniProt P09619); assay: PDGFRβ HTRF Assay; assay type: biochemical
VEGFR2, unphosphorylated = VEGFR2, unphosphorylated (Homo sapiens (Human), UniProt P35968); assay: VEGFR ADP GLO assay; assay type: biochemical; settings: 5 nM VEGFR2, 1.2 mM ATP, 1 mg/mL Srctide, 180 min
Chain of VEGFR2, unphosphorylated (P35968 whole entry, looked up): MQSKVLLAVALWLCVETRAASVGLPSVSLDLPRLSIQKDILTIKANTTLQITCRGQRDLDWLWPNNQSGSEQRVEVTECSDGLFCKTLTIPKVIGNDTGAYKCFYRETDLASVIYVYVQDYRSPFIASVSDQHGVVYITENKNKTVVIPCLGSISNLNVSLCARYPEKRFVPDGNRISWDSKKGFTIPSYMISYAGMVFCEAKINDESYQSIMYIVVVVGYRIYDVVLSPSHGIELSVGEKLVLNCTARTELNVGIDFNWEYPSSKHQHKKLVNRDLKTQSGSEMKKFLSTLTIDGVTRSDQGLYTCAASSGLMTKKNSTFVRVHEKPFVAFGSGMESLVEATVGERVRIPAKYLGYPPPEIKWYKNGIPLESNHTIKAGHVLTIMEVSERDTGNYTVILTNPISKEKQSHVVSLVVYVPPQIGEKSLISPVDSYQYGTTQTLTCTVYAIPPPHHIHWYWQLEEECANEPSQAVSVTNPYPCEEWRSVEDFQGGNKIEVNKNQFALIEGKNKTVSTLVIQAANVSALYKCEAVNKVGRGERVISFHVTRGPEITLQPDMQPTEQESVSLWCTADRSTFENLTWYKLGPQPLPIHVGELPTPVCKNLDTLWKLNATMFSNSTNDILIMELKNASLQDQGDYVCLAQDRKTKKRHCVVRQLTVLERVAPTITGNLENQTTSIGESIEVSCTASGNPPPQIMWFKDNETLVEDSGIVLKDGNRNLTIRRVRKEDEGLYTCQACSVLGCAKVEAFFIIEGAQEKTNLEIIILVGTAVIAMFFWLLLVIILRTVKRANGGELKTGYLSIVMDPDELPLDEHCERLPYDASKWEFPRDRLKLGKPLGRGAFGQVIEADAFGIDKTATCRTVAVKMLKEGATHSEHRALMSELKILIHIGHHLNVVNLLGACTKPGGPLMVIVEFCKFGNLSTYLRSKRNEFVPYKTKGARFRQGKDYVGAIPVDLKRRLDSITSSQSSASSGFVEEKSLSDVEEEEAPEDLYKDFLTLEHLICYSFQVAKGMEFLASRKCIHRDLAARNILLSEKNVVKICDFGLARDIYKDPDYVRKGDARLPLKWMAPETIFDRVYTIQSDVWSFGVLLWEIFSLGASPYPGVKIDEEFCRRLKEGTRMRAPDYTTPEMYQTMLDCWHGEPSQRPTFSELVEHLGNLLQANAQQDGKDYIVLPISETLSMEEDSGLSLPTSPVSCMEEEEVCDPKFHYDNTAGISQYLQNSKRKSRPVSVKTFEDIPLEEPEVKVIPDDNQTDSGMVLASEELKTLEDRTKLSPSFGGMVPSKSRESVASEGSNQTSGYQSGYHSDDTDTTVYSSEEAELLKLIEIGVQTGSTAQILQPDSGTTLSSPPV
In short: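 Luminescent ADP detection after a 180-min room-temperature reaction of srctide plus ATP (2 mg/mL and 2.4 mM in 2× mix) in pH 7.5 HEPES buffer with DTT, Pluronic and ovalbumin. Compounds, 11 points from 10 µM, first pre-incubated 30 min with enzyme (2× mix 10 nM). IC50s fitted after scaling between DMSO and 1 µM TAK-593 controls.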

PDGFRβ = PDGFRβ (Rattus norvegicus (Rat), UniProt Q05030); assay: PDGFRβ Cellular Assay (PDGFRb P-Y751 HTRF, PDGF-BB stimulated A10 cells); assay type: cell-based
Chain of PDGFRβ (Q05030 whole entry, looked up): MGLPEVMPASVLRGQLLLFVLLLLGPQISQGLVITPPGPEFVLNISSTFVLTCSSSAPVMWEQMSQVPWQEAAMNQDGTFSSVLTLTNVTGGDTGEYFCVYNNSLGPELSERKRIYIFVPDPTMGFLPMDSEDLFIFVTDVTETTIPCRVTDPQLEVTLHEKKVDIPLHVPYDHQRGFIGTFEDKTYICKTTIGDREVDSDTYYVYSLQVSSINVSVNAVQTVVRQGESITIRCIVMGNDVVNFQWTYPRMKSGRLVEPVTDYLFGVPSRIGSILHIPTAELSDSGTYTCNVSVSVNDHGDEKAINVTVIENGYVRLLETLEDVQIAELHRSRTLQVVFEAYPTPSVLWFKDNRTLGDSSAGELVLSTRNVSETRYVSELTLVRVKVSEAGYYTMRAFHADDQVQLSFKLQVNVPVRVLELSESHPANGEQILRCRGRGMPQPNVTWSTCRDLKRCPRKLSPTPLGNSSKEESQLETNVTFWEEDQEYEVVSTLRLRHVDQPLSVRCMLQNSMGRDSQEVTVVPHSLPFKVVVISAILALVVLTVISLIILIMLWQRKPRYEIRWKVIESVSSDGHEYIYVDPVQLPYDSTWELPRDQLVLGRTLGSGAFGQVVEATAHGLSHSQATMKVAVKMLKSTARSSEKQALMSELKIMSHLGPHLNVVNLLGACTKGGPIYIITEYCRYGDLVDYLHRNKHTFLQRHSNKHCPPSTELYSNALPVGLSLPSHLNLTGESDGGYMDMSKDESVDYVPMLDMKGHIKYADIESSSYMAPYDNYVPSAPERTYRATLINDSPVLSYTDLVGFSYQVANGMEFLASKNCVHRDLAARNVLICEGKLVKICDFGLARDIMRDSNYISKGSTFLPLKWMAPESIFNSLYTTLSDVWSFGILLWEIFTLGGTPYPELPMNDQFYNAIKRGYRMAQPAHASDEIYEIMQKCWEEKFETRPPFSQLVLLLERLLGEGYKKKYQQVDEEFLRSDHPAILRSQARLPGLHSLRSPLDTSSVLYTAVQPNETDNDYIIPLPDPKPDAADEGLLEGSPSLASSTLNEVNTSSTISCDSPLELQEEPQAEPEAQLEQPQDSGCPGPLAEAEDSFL
In short: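 Rat A10 cells plated overnight were treated with compound for 3 h, stimulated with rat PDGF-BB (working stock 100 ng/mL in 10% FBS medium) for 10 min, then lysed.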

[3] = 800 μM ATP, 0.5 μM TK-substrate biotin peptide, 30 min pre-incubation, 3 hours reaction, read-out: PDGFR HTRF IC50
[4] = A10 cells, 3 hours compound, 15 ng/mL PDGFbb for 10 minutes, read-out: PDGFR Cellular IC50

Chain of Tb-labeled inactive PDGFRβ (P09619 whole entry, looked up): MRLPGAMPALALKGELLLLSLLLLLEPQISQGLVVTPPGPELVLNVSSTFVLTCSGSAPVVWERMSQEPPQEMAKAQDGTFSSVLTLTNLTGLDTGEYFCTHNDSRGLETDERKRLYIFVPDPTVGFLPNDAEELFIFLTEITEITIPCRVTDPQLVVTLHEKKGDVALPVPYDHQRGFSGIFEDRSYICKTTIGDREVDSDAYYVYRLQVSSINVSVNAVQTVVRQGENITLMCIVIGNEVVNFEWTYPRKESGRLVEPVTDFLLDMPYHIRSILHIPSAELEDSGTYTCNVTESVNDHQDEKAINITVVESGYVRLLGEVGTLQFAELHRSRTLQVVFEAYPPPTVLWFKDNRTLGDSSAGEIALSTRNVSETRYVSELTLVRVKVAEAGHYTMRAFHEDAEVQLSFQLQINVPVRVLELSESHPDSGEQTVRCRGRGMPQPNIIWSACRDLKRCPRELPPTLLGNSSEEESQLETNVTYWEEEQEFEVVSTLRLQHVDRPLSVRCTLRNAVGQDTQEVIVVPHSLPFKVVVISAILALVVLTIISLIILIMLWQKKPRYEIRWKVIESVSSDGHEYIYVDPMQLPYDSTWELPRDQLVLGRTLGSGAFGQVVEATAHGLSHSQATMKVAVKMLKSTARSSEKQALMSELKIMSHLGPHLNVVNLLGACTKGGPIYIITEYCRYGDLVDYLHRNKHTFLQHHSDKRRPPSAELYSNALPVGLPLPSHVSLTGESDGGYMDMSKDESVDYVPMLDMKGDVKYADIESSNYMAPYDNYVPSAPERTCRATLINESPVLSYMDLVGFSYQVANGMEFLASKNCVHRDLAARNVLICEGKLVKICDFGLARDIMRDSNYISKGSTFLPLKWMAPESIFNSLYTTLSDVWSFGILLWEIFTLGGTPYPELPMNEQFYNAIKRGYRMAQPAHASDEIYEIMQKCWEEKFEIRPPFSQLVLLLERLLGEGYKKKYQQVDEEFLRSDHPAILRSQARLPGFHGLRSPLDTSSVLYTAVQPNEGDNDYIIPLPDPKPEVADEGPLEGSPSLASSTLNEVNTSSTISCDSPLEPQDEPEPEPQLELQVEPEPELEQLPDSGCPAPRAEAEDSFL
Chain of His6-TEV-PDGFRβ (557-1016) (P09619 whole entry, looked up): as above

SMILES	IC50 ([1]; read-out: PDGFR Lantha IC50) [nM]	IC50 [2, 3] [nM]	IC50 (VEGFR2, unphosphorylated) [nM]	IC50 (PDGFRβ; [4]) [nM]	IC50 [1] [nM]	IC50 [2] [nM]	IC50 (PDGFRβ) [nM]
Cc1ncc(C(=O)NCCN2CCCC2(C)C)cc1Nc1nn(C)c2nc(Nc3cnn4c3OCCC4)ncc12 [Example 163, 5-((6-((6,7-dihydro-5H-pyrazolo[5,1-b][1,3]oxazin-3-yl)amino)-1-methyl-1H-pyrazolo[3,4-d]pyrimidin-3-yl)amino)-N-(2-(2,2-dimethylpyrrolidin-1-yl)ethyl)-6-methylnicotinamide]	805	86.4	> 7500	> 2000	–	–	–
Cn1cc(Nc2ncc3c(Nc4cc(C(=O)NCCN5CC(C)(C)C5)ccc4F)nn(C)c3n2)cn1 [Example 120, N-(2-(3,3-dimethylazetidin-1-yl)ethyl)-4-fluoro-3-((1-methyl-6-((1-methyl-1H-pyrazol-4-yl)amino)-1H-pyrazolo[3,4-d]pyrimidin-3-yl)amino)benzamide]	3.3	0.32	> 7500	9.9	–	–	–
Cc1ncc(C(=O)NCCN2CCC3(CC3)C2)cc1Nc1nn(C)c2nc(Nc3cnn(C)c3)ncc12 [Example 90, N-(2-(5-azaspiro[2.4]heptan-5-yl)ethyl)-6-methyl-5-((1-methyl-6-((1-methyl-1H-pyrazol-4-yl)amino)-1H-pyrazolo[3,4-d]pyrimidin-3-yl)amino)nicotinamide]	1.8	0.25	> 7500	27.2	–	–	–
Cc1ncccc1Nc1ncc2c(Nc3cc(NC(=O)CN4CCC[C@@H]4C)cnc3C)nn(C)c2n1 [Example 145, (S)—N-(6-methyl-5-((1-methyl-6-((2-methylpyridin-3-yl)amino)-1H-pyrazolo[3,4-d]pyrimidin-3-yl)amino)pyridin-3-yl)-2-(2-methylpyrrolidin-1-yl)acetamide]	15.3	1.59	> 7500	8.7	–	–	–
Cc1ccc(C(=O)NCCN2CC(C)(C)C2)cc1Nc1nn(C)c2nc(Nc3cnn(C)c3)ncc12 [Example 64, N-(2-(3,3-dimethylazetidin-1-yl)ethyl)-4-methyl-3-((1-methyl-6-((1-methyl-1H-pyrazol-4-yl)amino)-1H-pyrazolo[3,4-d]pyrimidin-3-yl)amino)benzamide]	2.1	0.26	1030	8.9	–	–	–
Cc1ncc(C(=O)NCCN2CC3CCC2CC3)cc1Nc1nn(C)c2nc(Nc3cncnc3)ncc12 [Example 6, N-(2-(2-azabicyclo[2.2.2]octan-2-yl)ethyl)-6-methyl-5-((1-methyl-6-(pyrimidin-5-ylamino)-1H-pyrazolo[3,4-d]pyrimidin-3-yl)amino)nicotinamide]	5.2	0.59	> 7500	102	–	–	–
Cc1ncc(C(=O)NCCN2CCCC2(C)C)cc1Nc1nn(C)c2nc(Nc3ccc(N4CCOCC4)nc3)ncc12 [Example 102, N-(2-(2,2-dimethylpyrrolidin-1-yl)ethyl)-6-methyl-5-((1-methyl-6-((6-morpholinopyridin-3-yl)amino)-1H-pyrazolo[3,4-d]pyrimidin-3-yl)amino)nicotinamide]	3.8	0.37	> 7500	7.6	–	–	–
Cc1ncc(C(=O)NCCN2CCCC2(C)C)cc1Nc1nn(C)c2nc(Nc3ccncc3)ncc12 [Example 28, N-(2-(2,2-dimethylpyrrolidin-1-yl)ethyl)-6-methyl-5-((1-methyl-6-(pyridin-4-ylamino)-1H-pyrazolo[3,4-d]pyrimidin-3-yl)amino)nicotinamide]	3.8	0.5	~9180	39.4	–	–	–
Cc1ncc(C(=O)NCCN2CCCC2(C)C)cc1Nc1nn(C)c2nc(Nc3cncnc3)ncc12 [Example 27, N-(2-(2,2-dimethylpyrrolidin-1-yl)ethyl)-6-methyl-5-((1-methyl-6-(pyrimidin-5-ylamino)-1H-pyrazolo[3,4-d]pyrimidin-3-yl)amino)nicotinamide]	4	0.7	> 10000	31.2	–	–	–
Cc1ncc(C(=O)NCCN2CCCC2(C)C)cc1Nc1nn(C)c2nc(Nc3cnn(C)n3)ncc12 [Example 40, N-(2-(2,2-dimethylpyrrolidin-1-yl)ethyl)-6-methyl-5-((1-methyl-6-((2-methyl-2H-1,2,3-triazol-4-yl)amino)-1H-pyrazolo[3,4-d]pyrimidin-3-yl)amino)nicotinamide]	13	1.22	> 7500	14.1	–	–	–
Cc1ncc(C(=O)NCCN2CCCC2(C)C)cc1Nc1nn(C)c2nc(Nc3cccc(CC(=O)O)c3)ncc12 [Example 44, 2-(3-((3-((5-((2-(2,2-dimethylpyrrolidin-1-yl)ethyl)carbamoyl)-2-methylpyridin-3-yl)amino)-1-methyl-1H-pyrazolo[3,4-d]pyrimidin-6-yl)amino)phenyl)-acetic acid]	9.7	1.54	2190	2660	–	–	–
Cc1ncc(C(=O)NCCN2CCC[C@@H]2C)cc1Nc1nn(C)c2nc(Nc3cnn(C)c3C)ncc12 [Example 155, (S)-5-((6-((1,5-dimethyl-1H-pyrazol-4-yl)amino)-1-methyl-1H-pyrazolo[3,4-d]pyrimidin-3-yl)amino)-6-methyl-N-(2-(2-methylpyrrolidin-1-yl)ethyl)nicotinamide]	15.5	1.98	> 7500	169	–	–	–
Cc1nn(C)cc1Nc1ncc2c(Nc3cc(C(=O)NCCN4CCCC4(C)C)cnc3C)nn(C)c2n1 [Example 161, 5-((6-((1,3-dimethyl-1H-pyrazol-4-yl)amino)-1-methyl-1H-pyrazolo[3,4-d]pyrimidin-3-yl)amino)-N-(2-(2,2-dimethylpyrrolidin-1-yl)ethyl)-6-methylnicotinamide]	13.3	1.65	> 7500	24.8	–	–	–
Cc1ncc(C(=O)NCCN2[C@H](C)CCC[C@@H]2C)cc1Nc1nn(C)c2cc(Nc3cnn(C)c3)ncc12 [Example 68, N-(2-((2S,6R)-2,6-dimethylpiperidin-1-yl)ethyl)-6-methyl-5-((1-methyl-6-((1-methyl-1H-pyrazol-4-yl)amino)-1H-pyrazolo[4,3-c]pyridin-3-yl)amino)nicotinamide]	–	–	> 7500	–	33.9	1.98	112
Cc1ncc(C(=O)NCCN2C[C@H](C)O[C@@H](C)C2)cc1Nc1nn(C)c2nc(Nc3cncnc3)ncc12 [Example 114, N-(2-((2S,6S)-2,6-dimethylmorpholino)ethyl)-6-methyl-5-((1-methyl-6-(pyrimidin-5-ylamino)-1H-pyrazolo[3,4-d]pyrimidin-3-yl)amino)nicotinamide]	9.1	0.88	> 7500	72.9	–	–	–
Cc1ncc(C(=O)NCCN2CCC(C)(C)C2)cc1Nc1nn(C)c2nc(Nc3cncnc3)ncc12 [Example 8, N-(2-(3,3-dimethylpyrrolidin-1-yl)ethyl)-6-methyl-5-((1-methyl-6-(pyrimidin-5-ylamino)-1H-pyrazolo[3,4-d]pyrimidin-3-yl)amino)nicotinamide]	5.8	0.39	> 7500	48	–	–	–
COCCCN(CCNC(=O)c1cnc(C)c(Nc2nn(C)c3nc(Nc4cnn(C)c4)ncc23)c1)C1CCC1 [Example 93, N-(2-(cyclobutyl(3-methoxypropyl)amino)ethyl)-6-methyl-5-((1-methyl-6-((1-methyl-1H-pyrazol-4-yl)amino)-1H-pyrazolo[3,4-d]pyrimidin-3-yl)amino)nicotinamide]	3.8	0.44	> 7500	10.6	–	–	–
Cc1ncc(C(=O)NCCN2CCCC2(C)C)cc1Nc1nn(C)c2nc(Nc3ccc(=O)[nH]n3)ncc12 [Example 36, N-(2-(2,2-dimethylpyrrolidin-1-yl)ethyl)-6-methyl-5-((1-methyl-6-((6-oxo-1,6-dihydropyridazin-3-yl)amino)-1H-pyrazolo[3,4-d]pyrimidin-3-yl)amino) nicotinamide]	88.3	4.11	> 7500	> 3000	–	–	–
Cc1ncc(NC(=O)C2(C(=O)N3CCNCC3)CC2)cc1Nc1nn(C)c2nc(Nc3cnn(C)c3)ncc12 [Example 117, N-(6-methyl-5-((1-methyl-6-((1-methyl-1H-pyrazol-4-yl)amino)-1H-pyrazolo[3,4-d]pyrimidin-3-yl)amino)pyridin-3-yl)-1-(piperazine-1-carbonyl) cyclopropanecarboxamide]	147	4.28	> 7500	> 2000	–	–	–
Cc1cc(C(=O)NCCN2CCCOCC2)sc1Nc1nn(C)c2nc(Nc3cnn(C)c3)ncc12 [Example 62, N-(2-(1,4-oxazepan-4-yl)ethyl)-4-methyl-5-((1-methyl-6-((1-methyl-1H-pyrazol-4-yl)amino)-1H-pyrazolo[3,4-d]pyrimidin-3-yl)amino)thiophene-2-carboxamide]	12.1	0.83	> 7500	64.7	–	–	–
Cc1ncc(C(=O)NCCN2CCCC2(C)C)cc1Nc1nn(C)c2nc(Nc3ccc(N)nc3)ncc12 [Example 32, 5-((6-((6-aminopyridin-3-yl)amino)-1-methyl-1H-pyrazolo[3,4-d]pyrimidin-3-yl)amino)-N-(2-(2,2-dimethylpyrrolidin-1-yl)ethyl)-6-methylnicotinamide]	5.7	0.54	> 7500	110	–	–	–

Reference: US20240360134A1, “PYRAZOLOPYRIMIDINES AND THEIR USES AS PDGFR INHIBITORS” (priority 2021, published 2024)
